This is an account of results in ChEMBL document CHEMBL1129930, “Analogues of methotrexate in rheumatoid arthritis. 2. Effects of 5-deazaaminopterin, 5,10-dideazaaminopterin, and analogues on type II collagen-induced arthritis in mice” (J Med Chem, 1997).

Assay [1] relates to Mus musculus. In words: Incidence of disease (mouse type II collagen) was scored as the percentage of animals within each experimental group that exhibited joint or limb inflammation on day 30 at intraperitoneal of dose 6 mg/kg. Format: functional.
In assay [2] the test system is Mus musculus. In words: Incidence of disease (mouse type II collagen) was scored as the percentage of animals within each experimental group that exhibited joint or limb inflammation on day 37 at intraperitoneal of dose 6 mg/kg. It is filed as functional.
In assay [3] the test system is Mus musculus. The experiment in a line: Tested for antiinflammatory activity on mouse type II collagen arthritis as Paw swelling* of all animals in each group on day 23 at intraperitoneal dose of 12 mg/kg. It is filed as functional.
For assay [4], the system named is Mus musculus. In words: Tested for antiinflammatory activity on mouse type II collagen arthritis as Paw swelling* of all animals in each group on day 30 at intraperitoneal dose of 12 mg/kg. It is filed as functional.
In assay [5] the test system is Mus musculus. The experiment in a line: Incidence of disease (mouse type II collagen) was scored as the percentage of animals within each experimental group that exhibited joint or limb inflammation on day 44 at intraperitoneal of dose 6 mg/kg. Format: functional.
Assay [6] relates to Mus musculus. In words: Incidence of disease (mouse type II collagen) was scored as the percentage of animals within each experimental group that exhibited joint or limb inflammation on day 30 at intraperitoneal of dose 12 mg/kg. It is filed as functional.
Assay [7] has as its system Mus musculus. The experiment in a line: Incidence of disease (mouse type II collagen) was scored as the percentage of animals within each experimental group that exhibited joint or limb inflammation on day 23 at intraperitoneal dose 6 mg/kg. It is filed as functional.
Assay [8] relates to Mus musculus. In words: Tested for antiinflammatory activity on mouse type II collagen arthritis as Paw swelling* of all animals in each group on day 30 at intraperitoneal dose of 18 mg/kg. Format: functional.
The subject of assay [9] is Mus musculus. The experiment in a line: Incidence of disease (mouse type II collagen) was scored as the percentage of animals within each experimental group that exhibited joint or limb inflammation on day 37 at intraperitoneal of dose 18 mg/kg. It is filed as functional.
Assay [10] deals with Mus musculus. The experiment in a line: Tested for antiinflammatory activity on mouse type II collagen arthritis as Paw swelling* of all animals in each group on day 37 at intraperitoneal dose of 18 mg/kg. It is filed as functional.
Assay [11] deals with Mus musculus. The experiment in a line: Incidence of disease (mouse type II collagen) was scored as the percentage of animals within each experimental group that exhibited joint or limb inflammation on day 30 at intraperitoneal of dose 18 mg/kg. It is filed as functional.
The test system of assay [12] is Mus musculus. The experiment in a line: Tested for antiinflammatory activity on mouse type II collagen arthritis as Paw swelling* of all animals in each group on day 37 at intraperitoneal dose of 12 mg/kg. It is filed as functional.
The test system of assay [13] is Mus musculus. The experiment in a line: Tested for antiinflammatory activity on mouse type II collagen arthritis as Paw swelling* of all animals in each group on day 44 at intraperitoneal dose of 6 mg/kg. Format: functional.
Assay [14] deals with Mus musculus. The experiment in a line: Tested for antiinflammatory activity on mouse type II collagen arthritis as Paw swelling* of all animals in each group on day 37 at intraperitoneal dose of 6 mg/kg. Format: functional.
Assay [15] deals with Mus musculus. In words: Incidence of disease (mouse type II collagen) was scored as the percentage of animals within each experimental group that exhibited joint or limb inflammation on day 23 at intraperitoneal dose 18 mg/kg. Format: functional.
Assay [16] deals with Mus musculus. In words: Incidence of disease (mouse type II collagen) was scored as the percentage of animals within each experimental group that exhibited joint or limb inflammation on day 44 at intraperitoneal of dose 18 mg/kg. It is filed as functional.
Assay [17] concerns Mus musculus. In words: Incidence of disease (mouse type II collagen) was scored as the percentage of animals within each experimental group that exhibited joint or limb inflammation on day 23 at intraperitoneal dose 12 mg/kg. Format: functional.
Assay [18] relates to Mus musculus. In words: Tested for antiinflammatory activity on mouse type II collagen arthritis as Paw swelling* of all animals in each group on day 30 at intraperitoneal dose of 6 mg/kg. Format: functional.
The subject of assay [19] is Mus musculus. In words: Incidence of disease (mouse type II collagen) was scored as the percentage of animals within each experimental group that exhibited joint or limb inflammation on day 37 at intraperitoneal of dose 12 mg/kg. Format: functional.
Assay [20] can be described thus: Concentration required to inhibit the growth of chang liver cells. It is filed as functional. The settings on record: Homo sapiens.
The test system of assay [21] is Mus musculus. In words: Tested for antiinflammatory activity on mouse type II collagen arthritis as Paw swelling* of all animals in each group on day 23 at intraperitoneal dose of 6 mg/kg. It is filed as functional.
In assay [22] the test system is Mus musculus. The experiment in a line: Tested for antiinflammatory activity on mouse type II collagen arthritis as Paw swelling* of all animals in each group on day 44 at intraperitoneal dose of 12 mg/kg. It is filed as functional.
Assay [23] concerns Mus musculus. In words: Tested for antiinflammatory activity on mouse type II collagen arthritis as Paw swelling* of all animals in each group on day 44 at intraperitoneal dose of 18 mg/kg. Format: functional.
The subject of assay [24] is Mus musculus. In words: Incidence of disease (mouse type II collagen) was scored as the percentage of animals within each experimental group that exhibited joint or limb inflammation on day 44 at intraperitoneal of dose 12 mg/kg. It is filed as functional.
Assay [25] relates to Mus musculus. The experiment in a line: Tested for antiinflammatory activity on mouse type II collagen arthritis as Paw swelling* of all animals in each group on day 23 at intraperitoneal dose of 18 mg/kg. Format: functional.
A further assay relates to L1210. In words: Concentration required to inhibit the growth of L1210 cells. Format: functional, cell-based. The settings on record: Mus musculus.
Assay [26] relates to Mus musculus. In words: Incidence of disease (mouse type II collagen) was scored as the percentage of animals within each experimental group that exhibited joint or limb inflammation on day 37 at intraperitoneal dose of 4.5 mg/kg. It is filed as functional.
Assay [27] has as its system Mus musculus. The experiment in a line: Tested for antiinflammatory activity on mouse type II collagen arthritis as Paw swelling of all animals in each group on day 44 at intraperitoneal dose of 4.5 mg/kg. It is filed as functional.
Assay [28] has as its system Mus musculus. The experiment in a line: Tested for antiinflammatory activity on mouse type II collagen arthritis as Paw swelling of all animals in each group on day 30 at intraperitoneal dose of 4.5 mg/kg. It is filed as functional.
In assay [29] the test system is Mus musculus. In words: Tested for antiinflammatory activity on mouse type II collagen arthritis as Paw swelling of all animals in each group on day 37 at intraperitoneal dose of 4.5 mg/kg. Format: functional.
Assay [30] has as its system Mus musculus. In words: Incidence of disease (mouse type II collagen) was scored as the percentage of animals within each experimental group that exhibited joint or limb inflammation on day 23 at intraperitoneal dose of 9 mg/kg. Format: functional.
Assay [31] concerns Mus musculus. In words: Tested for antiinflammatory activity on mouse type II collagen arthritis as Paw swelling of all animals in each group on day 37 at intraperitoneal dose of 9 mg/kg. Format: functional.
In assay [32] the test system is Mus musculus. In words: Tested for antiinflammatory activity on mouse type II collagen arthritis as Paw swelling of all animals in each group on day 23 at intraperitoneal dose of 9 mg/kg. It is filed as functional.
Assay [33] relates to Mus musculus. The experiment in a line: Incidence of disease (mouse type II collagen) was scored as the percentage of animals within each experimental group that exhibited joint or limb inflammation on day 44 at intraperitoneal dose of 9 mg/kg. It is filed as functional.
For assay [34], the system named is Mus musculus. The experiment in a line: Incidence of disease (mouse type II collagen) was scored as the percentage of animals within each experimental group that exhibited joint or limb inflammation on day 44 at intraperitoneal dose of 4.5 mg/kg. It is filed as functional.
Assay [35] has as its system Mus musculus. The experiment in a line: Tested for antiinflammatory activity on mouse type II collagen arthritis as Paw swelling of all animals in each group on day 23 at intraperitoneal dose of 4.5 mg/kg. It is filed as functional.
Assay [36] concerns Mus musculus. The experiment in a line: Incidence of disease (mouse type II collagen) was scored as the percentage of animals within each experimental group that exhibited joint or limb inflammation on day 30 at intraperitoneal dose of 4.5 mg/kg. Format: functional.
Assay [37] relates to Mus musculus. The experiment in a line: Incidence of disease (mouse type II collagen) was scored as the percentage of animals within each experimental group that exhibited joint or limb inflammation on day 23 at intraperitoneal dose of 4.5 mg/kg. Format: functional.
The subject of assay [38] is Mus musculus. The experiment in a line: Incidence of disease (mouse type II collagen) was scored as the percentage of animals within each experimental group that exhibited joint or limb inflammation on day 30 at intraperitoneal dose of 9 mg/kg. It is filed as functional.
In assay [39] the test system is Mus musculus. In words: Tested for antiinflammatory activity on mouse type II collagen arthritis as Paw swelling of all animals in each group on day 30 at intraperitoneal dose of 9 mg/kg. Format: functional.
The subject of assay [40] is Mus musculus. In words: Tested for antiinflammatory activity on mouse type II collagen arthritis as Paw swelling of all animals in each group on day 44 at intraperitoneal dose of 9 mg/kg. It is filed as functional.
For assay [41], the system named is Mus musculus. The experiment in a line: Incidence of disease (mouse type II collagen) was scored as the percentage of animals within each experimental group that exhibited joint or limb inflammation on day 37 at intraperitoneal dose of 9 mg/kg. Format: functional.

Consider `C#CCN(Cc1cnc2nc(N)nc(N)c2c1)c1ccc(C(=O)NC(CCC(=O)O)C(=O)O)cc1` (configuration not stated), for which the Animals was 38% in the assay on Mus musculus [1]; 88% in the assay on Mus musculus [2]; 100% in the assay with Mus musculus [5]; 0% in the assay with Mus musculus [6]; 0% in the assay on Mus musculus [7]; 38% in the assay with Mus musculus [9]. In addition, the Animals with Mus musculus [11] stood at 0%; in the assay with Mus musculus [15], 0%; with Mus musculus [16], 38%; with Mus musculus [17], 0%; in the assay on Mus musculus [19], 50%; in the assay on Mus musculus [24] it was 75%. The Paw swelling was 2.17 mm with Mus musculus [3]; 2.16 mm with Mus musculus [4]; 2.13 mm with Mus musculus [8]; 2.23 mm in the assay with Mus musculus [10]; 2.3 mm in the assay with Mus musculus [12]; 2.65 mm in the assay with Mus musculus [13]. Moreover, the Paw swelling in the assay on Mus musculus [14] came out at 2.46 mm; in the assay on Mus musculus [18], 2.32 mm; in the assay with Mus musculus [21], 2.12 mm; in the assay on Mus musculus [22], 2.49 mm; with Mus musculus [23] it was 2.27 mm; in the assay with Mus musculus [25], 2.16 mm. The IC50 in assay [20] was determined as 6.3 nM; with L1210, 13 nM.
For the molecule `CCC(Cc1cnc2nc(N)nc(N)c2c1C)c1ccc(C(=O)NC(CCC(=O)O)C(=O)O)cc1` (configuration not stated), the Animals with Mus musculus [26] was determined as 38%; in the assay with Mus musculus [30], 0%; in the assay on Mus musculus [33], 88%; in the assay on Mus musculus [34] it was 75%; in the assay with Mus musculus [36] it was 12%; in the assay with Mus musculus [37], 0%. Moreover, the figures for the Animals in the assay with Mus musculus [38] and in the assay on Mus musculus [41] were 50% and 88%, respectively. The Paw swelling was determined as 2.68 mm in the assay on Mus musculus [27]; 2.18 mm in the assay on Mus musculus [28]; 2.32 mm in the assay with Mus musculus [29]; 3.09 mm in the assay on Mus musculus [31]; 2.12 mm in the assay with Mus musculus [32]; 2.1 mm in the assay with Mus musculus [35]. Besides, the Paw swelling with Mus musculus [39] was 2.45 mm; in the assay with Mus musculus [40], 2.99 mm.
